Patent US20120029190A1, “COMPOUNDS FOR TREATING DISORDERS MEDIATED BY METABOTROPIC GLUTAMATE RECEPTOR 5, AND METHODS OF USE THEREOF” (priority 2009, published 2012)

Target: T1, human recombinant mGluR5 receptor (Homo sapiens, UniProt P41594)
T1 construct: expressed in transfected cells; expression induced with doxycycline
Assay: mGluR5 in vitro functional assay (aequorin cell line, inhibition of glutamate EC80 response)
Assay type: cell-based
Settings: Table 1; aequorin cell line expressing human mGluR5, reference agonist glutamate at EC80; obtained in duplicate; read-out: IC50
Outline: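 Doxycycline-induced (600 ng/mL, 18 h) aequorin cells loaded with coelenterazine h ≥4 h at room temperature; compound preincubated 3 min before glutamate at EC80. Luminescence recorded, normalized to digitonin or 20 mM ATP wells; % inhibition of EC80 response fitted by sigmoidal nonlinear regression.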

T1 sequence (P41594 21-1212): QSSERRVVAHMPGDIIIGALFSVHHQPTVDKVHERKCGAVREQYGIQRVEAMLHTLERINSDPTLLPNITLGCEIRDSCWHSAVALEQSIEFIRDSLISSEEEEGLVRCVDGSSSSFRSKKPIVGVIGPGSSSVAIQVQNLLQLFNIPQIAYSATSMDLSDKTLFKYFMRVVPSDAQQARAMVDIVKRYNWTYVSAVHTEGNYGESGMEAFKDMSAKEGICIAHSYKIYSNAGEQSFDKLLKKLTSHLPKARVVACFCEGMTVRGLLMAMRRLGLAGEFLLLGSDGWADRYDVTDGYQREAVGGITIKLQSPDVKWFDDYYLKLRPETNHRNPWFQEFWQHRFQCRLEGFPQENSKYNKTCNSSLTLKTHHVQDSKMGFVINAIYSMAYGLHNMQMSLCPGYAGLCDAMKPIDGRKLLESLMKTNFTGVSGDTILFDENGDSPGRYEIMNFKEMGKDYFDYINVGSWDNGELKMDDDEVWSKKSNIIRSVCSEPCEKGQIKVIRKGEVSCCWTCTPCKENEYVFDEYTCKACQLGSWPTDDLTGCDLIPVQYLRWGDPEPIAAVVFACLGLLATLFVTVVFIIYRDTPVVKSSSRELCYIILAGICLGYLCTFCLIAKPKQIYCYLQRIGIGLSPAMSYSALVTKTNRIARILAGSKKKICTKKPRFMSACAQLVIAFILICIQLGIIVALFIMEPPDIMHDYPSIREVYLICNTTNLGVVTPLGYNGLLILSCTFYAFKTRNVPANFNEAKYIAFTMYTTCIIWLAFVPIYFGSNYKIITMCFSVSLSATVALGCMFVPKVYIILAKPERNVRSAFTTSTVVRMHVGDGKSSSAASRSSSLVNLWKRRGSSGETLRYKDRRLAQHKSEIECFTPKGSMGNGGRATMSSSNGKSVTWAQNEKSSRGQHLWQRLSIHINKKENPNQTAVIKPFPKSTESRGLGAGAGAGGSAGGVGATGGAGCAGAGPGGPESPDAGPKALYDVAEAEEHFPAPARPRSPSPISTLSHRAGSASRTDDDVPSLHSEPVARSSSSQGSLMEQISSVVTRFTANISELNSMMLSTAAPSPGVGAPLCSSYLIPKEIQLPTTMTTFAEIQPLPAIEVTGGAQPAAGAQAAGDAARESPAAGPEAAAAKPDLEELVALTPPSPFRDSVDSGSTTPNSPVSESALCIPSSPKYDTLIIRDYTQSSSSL

`N#Cc1cc(F)cc(N2CCn3cc(-c4ccccn4)nc3C2)c1` [Compound 109, 3-Fluoro-5-(2(pyridin-2-yl)-5,6-dihydroimidazo-[1,2-a]pyrazin-7(8H)-yl)benzonitrile] and `N#Cc1cccc(N2CCn3cc(-c4ccccn4)nc3C2)c1` [Compound 110, 3-(2(Pyridin-2-yl)-5,6-dihydroimidazo[1,2-a]pyrazin-7(8H)-yl)benzonitrile] cannot be ordered by IC50: under 1000 nM for the first, under 1000 nM for the second.

Compared with `N#Cc1cc(F)cc(N2CCc3nc(-c4ccccn4)[nH]c3C2)c1` [Compound 111, 3-Fluoro-5-(2-(pyridin-2-yl)-6,7-dihydro-3H-imidazo[4,5-c]pyridin-5(4H)-yl)benzonitrile], `N#Cc1cc(F)cc(N2CCn3nc(-c4ccccn4)nc3C2)c1` [Compound 112, 3-Fluoro-5-(2-(pyridin-2-yl)-5,6-dihydro-[1,2,4]triazolo[1,5-a]pyrazin-7(8H)-yl)benzonitrile] is lower in IC50: over 10000 nM for the first, under 1000 nM for the second. The second is the more potent here.

`Clc1cccc(N2CCn3nc(-c4ccccn4)nc3C2)c1` [Compound 113, 7-(3-Chlorophenyl)-2-(pyridin-2-yl)-5,6,7,8-tetrahydro-[1,2,4]triazolo[1,5-a]pyrazine] and `Fc1cccc(N2CCn3nc(-c4ccccn4)nc3C2)c1` [Compound 114, 7-(3-Fluorophenyl)-2-(pyridin-2-yl)-5,6,7,8-tetrahydro-[1,2,4]triazolo[1,5-a]pyrazine] cannot be ordered by IC50: under 1000 nM for the first, under 1000 nM for the second.

Same assay, conditions: Table 2; aequorin cell line expressing human mGluR5, reference agonist glutamate at EC80; obtained in duplicate; read-out: IC50

`Clc1cccc(N2CCc3oc(-c4ccccn4)nc3C2)c1` [Compound 115, 5-(3-chlorophenyl)-2-(pyridin-2-yl)-4,5,6,7-tetrahydrooxazolo[4,5-c]pyridine] and `Fc1cccc(N2CCc3oc(-c4ccccn4)nc3C2)c1` [Compound 116, 5-(3-fluorophenyl)-2-(pyridin-2-yl)-4,5,6,7-tetrahydrooxazolo[4,5-c]pyridine] cannot be ordered by IC50: under 1000 nM for the first, under 1000 nM for the second.

`N#Cc1cc(F)cc(N2CCc3oc(-c4ccncn4)nc3C2)c1` [Compound 118, 3-fluoro-5-(2-(pyrimidin-4-yl)-6,7-dihydrooxazolo[4,5-c]pyridin-5(4H)-yl)benzonitrile] and `N#Cc1cc(F)cc(N2CCCc3oc(-c4ccncn4)nc3C2)c1` [Compound 138, 3-fluoro-5-(2-(pyrimidin-4-yl)-7,8-dihydro-4H-oxazolo[4,5-c]azepin-5(6H)-yl)benzonitrile] cannot be ordered by IC50: under 1000 nM for the first, under 1000 nM for the second.

`Fc1cccc(N2CCc3oc(-c4ccncn4)nc3C2)c1` [Compound 119, 5-(3-fluorophenyl)-2-(pyrimidin-4-yl)-4,5,6,7-tetrahydrooxazolo[4,5-c]pyridine] and `Fc1cccc(N2CCCc3oc(-c4ccncn4)nc3C2)c1` [Compound 136, 5-(3-fluorophenyl)-2-(pyrimidin-4-yl)-5,6,7,8-tetrahydro-4H-oxazolo[4,5-c]azepine] cannot be ordered by IC50: under 10000 nM for the first, under 1000 nM for the second.

`Clc1cccc(N2CCc3oc(-c4ccncn4)nc3C2)c1` [Compound 120, 5-(3-chlorophenyl)-2-(pyrimidin-4-yl)-4,5,6,7-tetrahydrooxazolo[4,5-c]pyridine] and `Clc1cccc(N2CCCc3oc(-c4ccncn4)nc3C2)c1` [Compound 137, 5-(3-chlorophenyl)-2-(pyrimidin-4-yl)-5,6,7,8-tetrahydro-4H-oxazolo[4,5-c]azepine] cannot be ordered by IC50: under 10000 nM for the first, under 1000 nM for the second.

First: Cc1cccnc1-c1nc2c(o1)CCN(c1cc(F)cc(C#N)c1)C2 [Compound 121, 3-fluoro-5-(2-(3-methylpyridin-2-yl)-6,7-dihydrooxazolo[4,5-c]pyridin-5(4H)-yl)benzonitrile]
Second: Cc1cccnc1-c1nc2c(o1)CCN(c1cccc(F)c1)C2 [Compound 122, 5-(3-fluorophenyl)-2-(3-methylpyridin-2-yl)-4,5,6,7-tetrahydrooxazolo[4,5-c]pyridine]
The IC50 of the first is lower: under 10000 nM for the first, over 10000 nM for the second. The first is the more potent here.

Compared with `Cc1cccnc1-c1nc2c(o1)CCN(c1cccc(Cl)c1)C2` [Compound 123, 5-(3-chlorophenyl)-2-(3-methylpyridin-2-yl)-4,5,6,7-tetrahydrooxazolo[4,5-c]pyridine], `Fc1ccc(-c2nc3c(o2)CCN(c2cccc(Cl)c2)C3)nc1` [Compound 125, 5-(3-chlorophenyl)-2-(5-fluoropyridin-2-yl)-4,5,6,7-tetrahydrooxazolo[4,5-c]pyridine] is lower in IC50: over 10000 nM for the first, under 1000 nM for the second. The second is the more potent here.

`Fc1ccc(-c2nc3c(o2)CCN(c2cccc(F)c2)C3)nc1` [Compound 124, 5-(3-fluorophenyl)-2-(5-fluoropyridin-2-yl)-4,5,6,7-tetrahydrooxazolo[4,5-c]pyridine] and `Fc1ccc(-c2nc3c(o2)CCCN(c2cccc(F)c2)C3)nc1` [Compound 133, 5-(3-fluorophenyl)-2-(5-fluoropyridin-2-yl)-5,6,7,8-tetrahydro-4H-oxazolo[4,5-c]azepine] cannot be ordered by IC50: under 1000 nM for the first, under 1000 nM for the second.

`c1ccc(N2CCc3oc(-c4ccccn4)nc3C2)cc1` [Compound 126, 5-phenyl-2-(pyridin-2-yl)-4,5,6,7-tetrahydrooxazolo[4,5-c]pyridine] and `Clc1ccccc1N1CCc2oc(-c3ccccn3)nc2C1` [Compound 156, 5-(2-Chlorophenyl)-2-(pyridin-2-yl)-4,5,6,7-tetrahydrooxazolo[4,5-c]pyridine] cannot be ordered by IC50: under 1000 nM for the first, under 1000 nM for the second.

`COc1cccc(N2CCc3oc(-c4ccccn4)nc3C2)c1` [Compound 127, 5-(3-methoxyphenyl)-2-(pyridin-2-yl)-4,5,6,7-tetrahydrooxazolo[4,5-c]pyridine] and `c1ccc(-c2nc3c(o2)CCN(c2cccnc2)C3)nc1` [Compound 154, 2-(Pyridin-2-yl)-5-(pyridin-3-yl)-4,5,6,7-tetrahydrooxazolo[4,5-c]pyridine] cannot be ordered by IC50: under 1000 nM for the first, under 1000 nM for the second.

`c1ccc(-c2nc3c(o2)CCN(c2cncnc2)C3)nc1` [Compound 131, 2-(pyridin-2-yl)-5-(pyrimidin-5-yl)-4,5,6,7-tetrahydrooxazolo[4,5-c]pyridine] and `c1ccc(-c2nc3c(o2)CCN(c2ncccn2)C3)nc1` [Compound 132, 2-(pyridin-2-yl)-5-(pyrimidin-2-yl)-4,5,6,7-tetrahydrooxazolo[4,5-c]pyridine] cannot be ordered by IC50: under 10000 nM for the first, under 10000 nM for the second.

`Fc1ccc(-c2nc3c(o2)CCCN(c2cccc(Cl)c2)C3)nc1` [Compound 134, 5-(3-chlorophenyl)-2-(5-fluoropyridin-2-yl)-5,6,7,8-tetrahydro-4H-oxazolo[4,5-c]azepine] and `Clc1cccc(N2CCCc3oc(-c4cnccn4)nc3C2)c1` [Compound 140, 5-(3-chlorophenyl)-2-(pyrazin-2-yl)-5,6,7,8-tetrahydro-4H-oxazolo[4,5-c]azepine] cannot be ordered by IC50: under 1000 nM for the first, under 10000 nM for the second.

`N#Cc1cc(F)cc(N2CCCc3oc(-c4ccc(F)cn4)nc3C2)c1` [Compound 135, 3-fluoro-5-(2-(5-fluoropyridin-2-yl)-7,8-dihydro-4H-oxazolo[4,5-c]azepin-5(6H)-yl)benzonitrile] and `N#Cc1cc(F)cc(N2CCCc3oc(-c4cnccn4)nc3C2)c1` [Compound 141, 3-fluoro-5-(2-(pyrazin-2-yl)-7,8-dihydro-4H-oxazolo[4,5-c]azepin-5(6H)-yl)benzonitrile] cannot be ordered by IC50: under 1000 nM for the first, under 1000 nM for the second.

`Fc1cccc(N2CCCc3oc(-c4cnccn4)nc3C2)c1` [Compound 139, 5-(3-fluorophenyl)-2-(pyrazin-2-yl)-5,6,7,8-tetrahydro-4H-oxazolo[4,5-c]azepine] and `Fc1ccc(N2CCCc3oc(-c4ccccn4)nc3C2)cc1Cl` [Compound 144, 5-(3-chloro-4-fluorophenyl)-2-(pyridin-2-yl)-5,6,7,8-tetrahydro-4H-oxazolo[4,5-c]azepine] cannot be ordered by IC50: under 10000 nM for the first, under 1000 nM for the second.

Compared with `Cc1nc(-c2nc3c(o2)CCCN(c2cc(F)cc(C#N)c2)C3)cs1` [Compound 145, 3-fluoro-5-(2-(2-methylthiazol-4-yl)-7,8-dihydro-4H-oxazolo[4,5-c]azepin-5(6H)-yl)benzonitrile], `N#Cc1cc(F)cc(N2CCc3oc(Cc4ccccc4)nc3C2)c1` [Compound 155, 3-(2-Benzyl-6,7-dihydrooxazolo[4,5-c]pyridin-5(4H)-yl)-5-fluorobenzonitrile] is higher in IC50: under 1000 nM for the first, over 10000 nM for the second.

`Fc1ccc(N2CCc3oc(-c4ccccn4)nc3C2)cc1Cl` [Compound 146, 5-(3-chloro-4-fluorophenyl)-2-(pyridin-2-yl)-4,5,6,7-tetrahydrooxazolo[4,5-c]pyridine] and `Fc1ccc(N2CCc3oc(-c4ccccn4)nc3C2)cc1F` [Compound 152, 5-(3,4-Difluorophenyl)-2-(pyridin-2-yl)-4,5,6,7-tetrahydrooxazolo[4,5-c]pyridine] cannot be ordered by IC50: under 1000 nM for the first, under 1000 nM for the second.

`N#Cc1cccc(N2CCc3nc(-c4ccccc4)oc3C2)c1` [Compound 148, 3-(2-Phenyl-6,7-dihydrooxazolo[5,4-c]pyridin-5(4H)-yl)benzonitrile] and `N#Cc1cccc(N2CCc3nc(C4CCCCC4)oc3C2)c1` [Compound 149, 3-(2-Cyclohexyl-6,7-dihydrooxazolo[5,4-c]pyridin-5(4H)-yl)benzonitrile] cannot be ordered by IC50: under 10000 nM for the first, under 10000 nM for the second.

Going from `O=C(CN1CCc2nc(-c3ccccn3)oc2C1)c1ccc(F)cc1` [Compound 150, 1-(4-Fluorophenyl)-2-(2-(pyridin-2-yl)-6,7-dihydrooxazolo[5,4-c]pyridin-5(4H)-yl)ethanone] to `Clc1ccc(N2CCc3oc(-c4ccccn4)nc3C2)cc1` [Compound 157, 5-(4-Chlorophenyl)-2-(pyridin-2-yl)-4,5,6,7-tetrahydrooxazolo[4,5-c]pyridine], the IC50 falls from over 10000 nM to under 1000 nM. The second is the more potent here.

First: COC(=O)N1CCc2oc(-c3ccccn3)nc2C1 [Compound 151, Methyl 2-(pyridin-2-yl)-6,7-dihydrooxazolo[4,5-c]pyridine-5(4H)-carboxylate]
Second: Fc1cc(Cl)cc(N2CCc3oc(-c4ccccn4)nc3C2)c1 [Compound 158, 5-(3-Chloro-5-fluorophenyl)-2-(pyridin-2-yl)-4,5,6,7-tetrahydrooxazolo[4,5-c]pyridine]
The IC50 of the first is higher: over 10000 nM for the first, under 1000 nM for the second. The second is the more potent here.

For `Fc1cc(N2CCc3oc(-c4ccccn4)nc3C2)cc(F)c1F` [Compound 153, 2-(Pyridin-2-yl)-5-(3,4,5-trifluorophenyl)-4,5,6,7-tetrahydrooxazolo[4,5-c]pyridine], the IC50 was under 1000 nM.
